# Reference: patent US20060069132A1, “Azolecarboxamide herbicides” (priority 2004, published 2006)
# Columns and labels:
# giant foxtail [1] = experiment: Test B pre-/postemergence herbicide test; assay type: in vivo, Setaria faberi; conditions: for Foxtail, Giant plant response rating: postemergence, visual rating, scale 0 (no effect) to 100 (complete control)
# Method in brief: (§1)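 Test chemicals in a non-phytotoxic solvent mixture with surfactant were applied preemergence to seeded species and postemergence to plants 2-18 cm tall (1- to 4-leaf stage); rice and barnyardgrass were also tested in a flooded paddy at the 2-leaf stage. Visual rating versus controls after 13-15 days in greenhouse, scale 0 (no effect) to 100 (complete control).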
# velvetleaf [2] = experiment: Test B pre-/postemergence herbicide test; assay type: in vivo, Abutilon theophrasti; conditions: for Velvetleaf plant response rating: postemergence, visual rating, scale 0 (no effect) to 100 (complete control)
# Method in brief: as §1
# ducksalad = experiment: Test B flooded paddy test; assay type: in vivo, Heteranthera limosa; conditions: 1000 g ai/ha, visual rating, scale 0 to 100 (0 no effect, 100 complete control), 13 to 15 days
# Method in brief: (§2)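 Formulated test chemicals went onto postemergence plants measuring 2 to 18 cm, at one to four leaves. For the paddy assay, species had reached two leaves. Scoring took place 13–15 days later by eye, relative to untreated plants, using 0 for no effect up to 100 for full control.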
# blackgrass = experiment: Test B postemergence herbicide test; assay type: in vivo, Alopecurus myosuroides; conditions: postemergence, visual rating, scale 0 (no effect) to 100 (complete control)
# Method in brief: as §2
# large crabgrass [3] = experiment: Test B pre-/postemergence herbicide test; assay type: in vivo, Digitaria sanguinalis; conditions: for Crabgrass, Large plant response rating: postemergence, visual rating, scale 0 (no effect) to 100 (complete control)
# Method in brief: as §1
# giant foxtail [4] = experiment: Test A pre-/postemergence herbicide test; assay type: in vivo, Setaria faberi
# Method in brief: (§3)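 Both application timings were run together: directed soil spray over freshly planted seeds in sandy loam, and runoff spray onto 2–10 cm seedlings. Evaluation after ~10 days in greenhouse used a 0–100 visual scale versus untreated controls.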
# velvetleaf [5] = experiment: Test A pre-/postemergence herbicide test; assay type: in vivo, Abutilon theophrasti
# Method in brief: as §3
# barnyardgrass [6] = experiment: Test B pre-/postemergence herbicide test; assay type: in vivo, Echinochloa crus-galli; conditions: for Barnyardgrass plant response rating: postemergence, visual rating, scale 0 (no effect) to 100 (complete control)
# Method in brief: (§4)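 Plants compared with untreated controls 13–15 days post-treatment and given a visual 0–100 injury score. Applications: preemergence to seeds; postemergence at 1- to 4-leaf (2–18 cm); paddy species flooded, 2-leaf stage. Vehicle non-phytotoxic, surfactant included.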
# barnyardgrass [7] = experiment: Test B flooded paddy test; assay type: in vivo, Echinochloa crus-galli; conditions: 1000 g ai/ha, visual rating, scale 0 to 100 (0 no effect, 100 complete control), 13 to 15 days
# Method in brief: as §2
# lambsquarters = experiment: Test B pre-/postemergence herbicide test; assay type: in vivo, Chenopodium album; conditions: for Lambsquarters plant response rating: postemergence, visual rating, scale 0 (no effect) to 100 (complete control)
# Method in brief: as §1
# barnyardgrass [8] = experiment: Test A pre-/postemergence herbicide test; assay type: in vivo, Echinochloa crus-galli
# Method in brief: as §3
# rice [9] = experiment: Test B pre-/postemergence herbicide test; assay type: in vivo, Oryza sativa; conditions: preemergence
# Method in brief: as §1
# morningglory [10] = experiment: Test A pre-/postemergence herbicide test; assay type: in vivo, Ipomoea spp.
# Method in brief: as §3
# corn = experiment: Test B pre-/postemergence herbicide test; assay type: in vivo, Zea mays; conditions: for Corn plant response rating: postemergence, visual rating, scale 0 (no effect) to 100 (complete control)
# Method in brief: as §1
# Surinam grass = experiment: Test B pre-/postemergence herbicide test; assay type: in vivo, Urochloa decumbens; conditions: for Surinam Grass plant response rating: postemergence, visual rating, scale 0 (no effect) to 100 (complete control)
# Method in brief: as §1
# wheat = experiment: Test B postemergence herbicide test; assay type: in vivo, Triticum aestivum; design: key to Wheat plant response rating: 0 = no effect, 100 = complete control; conditions: postemergence, visual rating, scale 0 (no effect) to 100 (complete control)
# Method in brief: (§5)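 Plants grow to 1- to 4-leaf stage (2–18 cm) for postemergence spraying, or to 2-leaf stage for the paddy test. Formulated compound is applied. Greenhouse holding lasts 13–15 days. Response is scored visually relative to controls, 0 no effect to 100 complete control; a dash means no result.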
# rice [11] = experiment: Test B flooded paddy test; assay type: in vivo, Oryza sativa; conditions: 1000 g ai/ha, visual rating, scale 0 to 100 (0 no effect, 100 complete control), 13 to 15 days
# Method in brief: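 Paddy species grown to the 2-leaf stage under flooding; blackgrass sprayed postemergence at 2–18 cm (1- to 4-leaf stage). Plants kept in a greenhouse for 13 to 15 days, then visually rated against controls on 0 (no effect) to 100 (complete control).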
# pigweed = experiment: Test B pre-/postemergence herbicide test; assay type: in vivo, Amaranthus retroflexus; conditions: for Pigweed plant response rating: postemergence, visual rating, scale 0 (no effect) to 100 (complete control)
# Method in brief: as §1
# morningglory [12] = experiment: Test B pre-/postemergence herbicide test; assay type: in vivo, Ipomoea coccinea; conditions: for Morningglory plant response rating: postemergence, visual rating, scale 0 (no effect) to 100 (complete control)
# Method in brief: as §4
# redroot pigweed = experiment: Test A pre-/postemergence herbicide test; assay type: in vivo, Amaranthus retroflexus
# Method in brief: as §3
# [13] = test system: small flower umbrella sedge; experiment: Test B flooded paddy test; assay type: in vivo, Cyperus difformis; conditions: 1000 g ai/ha, visual rating, scale 0 to 100 (0 no effect, 100 complete control), 13 to 15 days
# Method in brief: as §2
# cocklebur = experiment: Test B pre-/postemergence herbicide test; assay type: in vivo, Xanthium strumarium; conditions: postemergence, visual rating, scale 0 (no effect) to 100 (complete control)
# Method in brief: as §4
# large crabgrass [14] = experiment: Test A pre-/postemergence herbicide test; assay type: in vivo, Digitaria sanguinalis
# Method in brief: as §3
# wild oat = experiment: Test B postemergence herbicide test; assay type: in vivo, Avena fatua; conditions: postemergence, visual rating, scale 0 (no effect) to 100 (complete control)
# Method in brief: as §5
# [15] = 125 g ai/ha, 0 = no effect, 100 = complete control, preemergence
# [16] = 500 g ai/ha, visual rating 0-100, 0 no effect, 100 complete control, preemergence
# [17] = Postemergence, 500 g ai/ha, 0 to 100 scale, 0 no effect, 100 complete control
# [18] = Postemergence, 2000 g ai/ha, 0 to 100 scale, 0 no effect, 100 complete control
# [19] = Preemergence, 2000 g ai/ha, visual rating, 0 to 100 scale (0 no effect, 100 complete control)
# [20] = preemergence, 500 g ai/ha, visual injury, 0 to 100 scale (0 no effect, 100 complete control)
smiles,measurement,setting,value
CCn1nc(C(C)(C)C)cc1C(=O)Nc1nc(OC)cc(SCF)n1 [Compound 167],"Foxtail, Giant plant response rating (0 to 100 scale)",giant foxtail [1]; [15],0
same,"Plant response rating, Foxtail, Giant",giant foxtail [1]; [16],0
same,"Foxtail, Giant plant response rating",giant foxtail [1]; 125 g ai/ha,0
same,"Foxtail, Giant plant response rating",giant foxtail [1]; 500 g ai/ha,0
same,Velvetleaf plant response rating (0 to 100 scale),velvetleaf [2]; [15],0
same,"Plant response rating, Velvetleaf",velvetleaf [2]; [16],0
same,Velvetleaf plant response rating,velvetleaf [2]; 125 g ai/ha,0
same,Velvetleaf plant response rating,velvetleaf [2]; 500 g ai/ha,0
same,Ducksalad plant response rating,ducksalad,0
same,Blackgrass plant response rating,blackgrass; 125 g ai/ha,0
same,Blackgrass plant response rating,blackgrass; 500 g ai/ha,0
same,"Crabgrass, Large plant response rating (0 to 100 scale)",large crabgrass [3]; [15],0
same,"Plant response rating, Crabgrass, Large",large crabgrass [3]; [16],0
same,"Crabgrass, Large plant response rating",large crabgrass [3]; 125 g ai/ha,0
same,"Crabgrass, Large plant response rating",large crabgrass [3]; 500 g ai/ha,0
same,"Foxtail, Giant plant response rating",giant foxtail [4]; [17],0
same,"Plant response rating, Foxtail, Giant",giant foxtail [4]; [18],0
same,"Foxtail, Giant plant response rating",giant foxtail [4]; [19],10
same,"Foxtail, Giant plant response rating",giant foxtail [4]; [20],0
same,Velvetleaf plant response rating,velvetleaf [5]; [17],10
same,"Plant response rating, Velvetleaf",velvetleaf [5]; [18],20
same,Velvetleaf plant response rating,velvetleaf [5]; [19],10
same,Velvetleaf plant response rating,velvetleaf [5]; [20],5
same,Barnyardgrass plant response rating (0 to 100 scale),barnyardgrass [6]; [15],0
same,"Plant response rating, Barnyardgrass",barnyardgrass [6]; [16],0
same,Barnyardgrass plant response rating,barnyardgrass [6]; 125 g ai/ha,0
same,Barnyardgrass plant response rating,barnyardgrass [6]; 500 g ai/ha,0
same,Barnyardgrass plant response rating,barnyardgrass [7],0
same,Lambsquarters plant response rating (0 to 100 scale),lambsquarters; [15],0
same,"Plant response rating, Lambsquarters",lambsquarters; [16],0
same,Lambsquarters plant response rating,lambsquarters; 125 g ai/ha,0
same,Lambsquarters plant response rating,lambsquarters; 500 g ai/ha,0
same,Barnyardgrass plant response rating,barnyardgrass [8]; [17],0
same,"Plant response rating, Barnyardgrass",barnyardgrass [8]; [18],0
same,Barnyardgrass plant response rating,barnyardgrass [8]; [19],0
same,Barnyardgrass plant response rating,barnyardgrass [8]; [20],0
same,Rice plant response rating (0 to 100 scale),"rice [9]; 125 g ai/ha, 0 = no effect, 100 = complete control",0
same,"Plant response rating, Rice","rice [9]; 500 g ai/ha, visual rating 0-100, 0 no effect, 100 complete control",0
same,Morningglory plant response rating,morningglory [10]; [17],0
same,"Plant response rating, Morningglory",morningglory [10]; [18],10
same,Morningglory plant response rating,morningglory [10]; [19],5
same,Morningglory plant response rating,morningglory [10]; [20],0
same,"Plant response rating, Corn",corn; [16],0
same,Corn plant response rating,corn; 125 g ai/ha,0
same,Corn plant response rating,corn; 500 g ai/ha,0
same,Surinam Grass plant response rating (0 to 100 scale),Surinam grass; [15],0
same,"Plant response rating, Surinam Grass",Surinam grass; [16],0
same,Surinam Grass plant response rating,Surinam grass; 125 g ai/ha,0
same,Surinam Grass plant response rating,Surinam grass; 500 g ai/ha,0
same,Wheat plant response rating,wheat; 125 g ai/ha,0
same,Wheat plant response rating,wheat; 500 g ai/ha,0
same,Rice plant response rating,rice [11],0
same,Pigweed plant response rating (0 to 100 scale),pigweed; [15],0
same,"Plant response rating, Pigweed",pigweed; [16],0
same,Pigweed plant response rating,pigweed; 125 g ai/ha,0
same,Pigweed plant response rating,pigweed; 500 g ai/ha,0
same,Morningglory plant response rating (0 to 100 scale),morningglory [12]; [15],0
same,"Plant response rating, Morningglory",morningglory [12]; [16],0
same,Morningglory plant response rating,morningglory [12]; 125 g ai/ha,0
same,Morningglory plant response rating,morningglory [12]; 500 g ai/ha,0
same,Pigweed plant response rating,redroot pigweed; [17],0
same,"Plant response rating, Pigweed",redroot pigweed; [18],0
same,Pigweed plant response rating,redroot pigweed; [19],50
same,Pigweed plant response rating,redroot pigweed; [20],0
same,"Sedge, Umbrella plant response rating",[13],0
same,Cocklebur plant response rating,cocklebur; 125 g ai/ha,0
same,Cocklebur plant response rating,cocklebur; 500 g ai/ha,0
same,"Crabgrass, Large plant response rating",large crabgrass [14]; [17],0
same,"Plant response rating, Crabgrass, Large",large crabgrass [14]; [18],5
same,"Crabgrass, Large plant response rating",large crabgrass [14]; [19],5
same,"Crabgrass, Large plant response rating",large crabgrass [14]; [20],0
same,"Oat, Wild plant response rating",wild oat; 125 g ai/ha,0
same,"Oat, Wild plant response rating",wild oat; 500 g ai/ha,0
